From US8211631B2, “In vitro model of spinal muscular atrophy” (Wisconsin Alumni Research Foundation, priority 2008, dated 2012)
Entries after “also recorded” stand apart in the source; their conditions may differ.

Experiments:
Assay type in all cases: cell-based, human
iPS-WT cells = assay: Nuclear gem localization (SMN immunostaining) in iPS-WT-derived neurons and astrocytes after drug treatment; details: 1 mM valproic acid or tobramycin; 2 days of drug treatment
Protocol: (§1) Immunocytochemistry. Cells were fixed in 4% paraformaldehyde or 1:1 acetone/methanol for 20 min at room temperature and rinsed with PBS. Nonspecific labeling was blocked and the cells were permeabilized with 5% normal goat serum and/or 5% normal donkey serum containing 0.2% Triton X-100 in PBS for 30 min at room temperature. Cells were rinsed with PBS and then incubated with primary antibodies for 1 h at room temperature or overnight at 4° C. Cells were then labeled with the appropriate fluorescently tagged secondary antibodies. Hoechst nuclear dye was used to label nuclei. Gems were counted in 100 nuclei, and positively stained neurons were counted and measured on five areas on each of three coverslips using Metamorph software. All data were analyzed using Prizm statistical software.
(§2) Finally, we assessed whether SMN-inducing compounds could increase SMN levels in the iPS-SMA cellular context because this would be an important proof-of-principle for the further development of drug screens. […] We are at present assessing gem formation in differentiating motor neurons and have shown that they can indeed be detected (FIG. 14A, B).

iPS-SMA cells = assay: Nuclear gem localization (SMN immunostaining) in iPS-SMA-derived neurons and astrocytes after drug treatment; details: 1 mM valproic acid or tobramycin; 2 days of drug treatment; gems counted in 100 nuclei; P<0.05, ANOVA
Protocol: as §1, §2

[1] = test system: SMN protein in iPS-SMA cells; assay: Western blot analysis of SMN protein in drug-treated iPS-SMA cells; details: corrected to beta-actin, two days after drug treatment, 1 mM valproic acid or tobramycin, n=3
Protocol: Protein isolation and western blot analysis. Cells were isolated, suspended in 1% Triton X-100 lysis buffer supplemented with 1% protease inhibitor cocktail (Sigma), triturated and centrifuged at 16,060 g for 10 min at 4° C. Ten to twenty micrograms of protein was separated on 12% SDS-polyacrylamide gel, transferred to a nitrocellulose membrane and probed with a primary antibody against SMN (mouse monoclonal), followed by a horseradish-peroxidase-conjugated secondary antibody (Promega), and then visualized using ECL chemiluminescence (Amersham). As a control, the membrane was stripped and re-probed for beta-actin. For semiquantitative analysis, SMN signal intensity was analyzed and corrected with respect to beta-actin.
as §2, with “screens. SMN protein is found in both the cytoplasm and nuclear aggregate structures called gems, and the number of gems present is inversely correlated to disease severity (Coovert, D. D. et al. The survival motor neuron protein in spinal muscular atrophy, Hum. Mol. Genet. 6, 1205-1214, 1997).” for “screens.”

| SMILES | gem localization in treated compared to untreated iPS-WT cells (iPS-WT cells) | number of gems in treated compared to untreated iPS-SMA cells (iPS-SMA cells) | increase in SMN protein levels compared to untreated iPS-SMA cells [1] |
| --- | --- | --- | --- |
| NC[C@H]1O[C@H](O[C@H]2[C@H](O)[C@@H](O[C@H]3O[C@H](CO)[C@@H](O)[C@H](N)[C@H]3O)[C@H](N)C[C@@H]2N)[C@H](N)C[C@@H]1O [tobramycin] | no significant increase in gem localization | significant increase in the number of gems; also recorded: significantly increased the number of gems | 3 fold |
| CCCC(CCC)C(=O)O [valproic acid] | no significant increase in gem localization | significant increase in the number of gems; also recorded: significantly increased the number of gems | 2 fold |
